pIC50: −log10 of the molar value. Where a name gives a salt, the structure may show the parent alone.

Assay [1] deals with T1, pseudo-kinase domain (JH2, amino-acids 536-812) of human V617F mutant JAK2 (Homo sapiens, UniProt O60674, F794H/V617F/W659A/W777A).
T1 construct: pseudo-kinase domain (JH2, amino-acids 536-812 with 3 surface mutations W659A, W777A, F794H); purchased BPS Bioscience 79498; host or cells: baculovirus expression system
The assay can be described thus: JAK2 LanthaScreen JH2-V617F Binding Assay. To be noted: 1 hour at 25° C. The gist of the method:
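Biotinylated His-Avi-tagged construct, baculovirus-expressed, at 0.26 nM; compounds competed against 50 nM fluorescent JH2 tracer with 0.25 nM streptavidin-Tb in Tris pH 7.5 buffer. Non-specific binding defined with 2 mM ATP. Read after 1 h at 25° C by TR-FRET; IC50 from four-parameter fit.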

The target of assay [2] is T2, pseudo-kinase domain (JH2, amino-acids 536-812) of human Wild Type JAK2 (Homo sapiens, UniProt O60674, F794H/W659A/W777A).
T2 construct: pseudo-kinase domain (JH2, amino-acids 536-812 with 3 surface mutations W659A, W777A, F794H); purchased BPS Bioscience 79463; host or cells: baculovirus expression system
T2 sequence (O60674 536-812 W659A/W777A/F794H): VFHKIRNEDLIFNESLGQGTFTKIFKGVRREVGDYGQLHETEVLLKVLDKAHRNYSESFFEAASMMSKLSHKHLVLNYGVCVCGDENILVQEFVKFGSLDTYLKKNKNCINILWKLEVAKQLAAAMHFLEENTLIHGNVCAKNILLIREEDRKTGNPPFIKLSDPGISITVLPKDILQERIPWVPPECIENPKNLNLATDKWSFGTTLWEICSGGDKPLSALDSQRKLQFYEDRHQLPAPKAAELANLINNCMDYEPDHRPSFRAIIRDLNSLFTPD
The assay can be described thus: JAK2 LanthaScreen JH2-WT Binding Assay. To be noted: 1 hour at 25° C. The gist of the method: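 Binding was measured by TR-FRET between streptavidin-Tb (0.25 nM) on biotinylated JH2 (0.145 nM) and 50 nM fluorescent tracer, with compound dose series, 1 h at 25° C; IC50 fitted.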
(Time-resolved FRET reads energy transfer from a long-lived donor to a nearby acceptor.)

Assay [3] deals with T3, catalytic domain (JH1, amino acids 826-1132) of human JAK2 (Homo sapiens, UniProt O60674).
T3 construct: catalytic domain (JH1, amino acids 826-1132) of human JAK2; purchased Carna Biosciences 08-445-20N; host or cells: baculovirus expression system
T3 sequence (O60674 826-1132): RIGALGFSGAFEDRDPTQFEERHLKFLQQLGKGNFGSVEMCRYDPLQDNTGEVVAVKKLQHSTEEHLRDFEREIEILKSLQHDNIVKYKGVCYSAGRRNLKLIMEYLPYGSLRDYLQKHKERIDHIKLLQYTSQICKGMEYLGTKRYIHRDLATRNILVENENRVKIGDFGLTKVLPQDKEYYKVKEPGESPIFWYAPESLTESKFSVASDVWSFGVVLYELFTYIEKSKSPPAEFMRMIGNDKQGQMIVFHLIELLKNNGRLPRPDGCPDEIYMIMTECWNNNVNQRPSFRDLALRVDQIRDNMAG
The assay can be described thus: JAK2 LanthaScreen JH1 Binding Assay. The settings on record: 2 hours at 25° C. Put shortly:
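FLAG-tagged biotinylated JAK2 JH1 (1.5 nM) incubated with compounds, 50 nM fluorescent tracer and 0.5 nM streptavidin-Tb in Tris pH 7.5 buffer with MgCl2, BSA, DTT, 2 h at 25 °C.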

The target of assay [4] is T4, catalytic domain (JH1, amino acids 808-1132) of human JAK2 (Homo sapiens, UniProt O60674).
T4 construct: catalytic domain (JH1, amino acids 808-1132) of human JAK2; His (N); purchased BPS Bioscience 40450; host or cells: baculovirus expression system
T4 sequence (O60674 808-1132): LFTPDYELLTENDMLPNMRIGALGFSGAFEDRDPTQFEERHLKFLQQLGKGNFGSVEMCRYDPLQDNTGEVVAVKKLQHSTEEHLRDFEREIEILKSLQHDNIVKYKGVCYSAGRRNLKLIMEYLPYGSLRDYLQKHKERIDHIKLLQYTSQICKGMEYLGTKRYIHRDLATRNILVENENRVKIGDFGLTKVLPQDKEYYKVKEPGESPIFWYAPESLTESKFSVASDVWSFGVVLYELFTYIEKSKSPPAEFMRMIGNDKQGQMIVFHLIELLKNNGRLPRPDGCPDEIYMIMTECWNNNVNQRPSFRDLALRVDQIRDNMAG
Description: JAK2 HTRF Enzyme Activity Assay. It is filed as biochemical. To be noted: ATP 30 μM, read-out: ENZ 30UMATP. The gist of the method:
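His-tagged JAK2 JH1 from baculovirus, 0.015 nM, incubated with compound, ATP at 30 μM or 1 mM and 500 nM biotinylated peptide, pH 7.5, 60 min at 25° C. HTRF read-out via Eu-anti-phosphotyrosine and streptavidin-APC after EDTA stop; IC50 from four-parameter dose-response fit.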

T1 sequence (O60674 536-812 V617F/W659A/W777A/F794H): as the sequence (O60674 536-812 W659A/W777A/F794H) above, with V82F counted along it

As for `CN1C(=O)C2(CCN(C(C)(C)c3nnc[nH]3)CC2)c2c1cnc1[nH]c(-c3cnn(C)c3)c(-c3ccc4c(cnn4C)c3)c21` [Example 77, 1′-(2-(4H-1,2,4-Triazol-3-yl)propan-2-yl)-6-methyl-1-(1-methyl-1H-indazol-5-yl)-2-(1-methyl-1H-pyrazol-4-yl)-3,6-dihydro-7H-spiro[dipyrrolo[2,3-b:3′,2′-d]pyridine-8,4′-piperidin]-7-one], the pIC50 was not below 7.00 in assay [1], not below 7.00 in assay [2], 5.90 to 6.30 in assay [3] and 5.90 to 6.30 in assay [4].
For `[2H]C([2H])([2H])n1ncc2cc(-c3c(-c4cnn5c4CCC5)[nH]c4ncc5c(c34)C3(CCN(C4(CC#N)CCCC4)CC3)C(=O)N5C)ccc21` [Example 79, 2-(1-(2-(5,6-Dihydro-4H-pyrrolo[1,2-b]pyrazol-3-yl)-6-methyl-1-(1-(methyl-d3)-1H-indazol-5-yl)-7-oxo-6,7-dihydro-3H-spiro[dipyrrolo[2,3-b:3′,2′-d]pyridine-8,4′-piperidin]-1′-yl)cyclopentyl)acetonitrile], the pIC50 is not below 7.00 in assay [1], not below 7.00 in assay [2], less than 5.60 in assay [3] and 5.60 to 5.90 in assay [4].
For the compound `COC(=O)N1CCC(CC#N)(N2CCC3(CC2)C(=O)N(C)c2cnc4[nH]c(-c5cnn(C)c5)c(-c5ccc6c(cnn6C)c5)c4c23)CC1` [Example 81, Methyl 4-(cyanomethyl)-4-(6-methyl-1-(1-methyl-1H-indazol-5-yl)-2-(1-methyl-1H-pyrazol-4-yl)-7-oxo-6,7-dihydro-3H-spiro[dipyrrolo[2,3-b:3′,2′-d]pyridine-8,4′-piperidin]-1′-yl)piperidine-1-carboxylate], the pIC50 in assay [1] is not below 7.00; in assay [2] it was not below 7.00; in assay [3], 5.90 to 6.30; in assay [4], 5.90 to 6.30.
For `CC(=O)NC12CC(N3CCC4(CC3)C(=O)N(C)c3cnc5[nH]c(-c6cnn(C)c6)c(-c6ccc7c(cnn7C)c6)c5c34)(C1)C2` [Example 82, N-(3-(6-Methyl-1-(1-methyl-1H-indazol-5-yl)-2-(1-methyl-1H-pyrazol-4-yl)-7-oxo-6,7-dihydro-3H-spiro[dipyrrolo[2,3-b:3′,2′-d]pyridine-8,4′-piperidin]-1′-yl)bicyclo[1.1.1]pentan-1-yl)acetamide], the pIC50 is not below 7.00 in assay [1], not below 7.00 in assay [2], 6.30 to 7.00 in assay [3] and 6.30 to 7.00 in assay [4].
Consider `COC(=O)N1CC2(N3CCC4(CC3)C(=O)N(C)c3cnc5[nH]c(-c6cnn(C)c6)c(-c6ccc7c(cnn7C)c6)c5c34)CC1C2` [Example 83, Methyl 4-(6-methyl-1-(1-methyl-1H-indazol-5-yl)-2-(1-methyl-1H-pyrazol-4-yl)-7-oxo-6,7-dihydro-3H-spiro[dipyrrolo[2,3-b:3′,2′-d]pyridine-8,4′-piperidin]-1′-yl)-2-azabicyclo[2.1.1]hexane-2-carboxylate], for which the pIC50 in assay [1] is not below 7.00; in assay [2] it was not below 7.00; in assay [3] it was 5.60 to 5.90; in assay [4] it was 5.60 to 5.90.
Consider `CN1C(=O)C2(CCN(C(C)(C)C3CNC3)CC2)c2c1cnc1[nH]c(-c3cnn(C)c3)c(-c3ccc4c(cnn4C)c3)c21` [Example 84, 1′-(2-(Azetidin-3-yl)propan-2-yl)-6-methyl-1-(1-methyl-1H-indazol-5-yl)-2-(1-methyl-1H-pyrazol-4-yl)-3,6-dihydro-7H-spiro[dipyrrolo[2,3-b:3′,2′-d]pyridine-8,4′-piperidin]-7-one], for which the pIC50 was not below 7.00 in assay [1], not below 7.00 in assay [2], 5.90 to 6.30 in assay [3] and 6.30 to 7.00 in assay [4].
For the compound `O=C(O)C(F)(F)F.[2H]C([2H])([2H])n1ncc2cc(-c3c(-c4ccc(CN5CCOCC5)cc4)[nH]c4ncc5c(c34)C3(CC4(CN(S(=O)(=O)CC)C4)C3)C(=O)N5C)ccc21` [Example 85, 1-(Ethylsulfonyl)-6″-methyl-1″-(1-(methyl-d3)-1H-indazol-5-yl)-2″-(4-(morpholinomethyl)phenyl)-3″,6″-dihydro-7″H-dispiro[azetidine-3,1′-cyclobutane-3′,8″-dipyrrolo[2,3-b:3′,2′-d]pyridin]-7″-one, trifluoroacetate salt], the pIC50 in assay [1] is not below 7.00; in assay [2] it was not below 7.00; in assay [3] it was 5.60 to 5.90; in assay [4], 5.60 to 5.90.
In the case of `CCS(=O)(=O)N1CC2(C1)CC1(C2)C(=O)N(C)c2cnc3[nH]c(-c4cnn(C)c4)c(-c4ccc5c(cnn5C)c4)c3c21` [Example 86, l-(Ethylsulfonyl)-6″-methyl-1″-(1-methyl-1H-indazol-5-yl)-2″-(1-methyl-1H-pyrazol-4-yl)-3″,6″-dihydro-7″H-dispiro[azetidine-3,1′-cyclobutane-3′,8″-dipyrrolo[2,3-b:3′,2′-d]pyridin]-7″-one, trifluoroacetate salt], the pIC50 in assay [1] is not below 7.00; in assay [2], not below 7.00; in assay [3], 5.90 to 6.30; in assay [4], 5.90 to 6.30.
Consider `CCS(=O)(=O)N1CC2(C1)CC1(C2)C(=O)N(C)c2cnc3[nH]c(-c4cnn(CC5CC5)c4)c(-c4ccc5c(cnn5C)c4)c3c21` [Example 87, 2″-(1-(Cyclopropylmethyl)-1H-pyrazol-4-yl)-1-(ethylsulfonyl)-6″-methyl-1″-(1-methyl-1H-indazol-5-yl)-3″,6″-dihydro-7″H-dispiro[azetidine-3,1′-cyclobutane-3′,8″-dipyrrolo[2,3-b:3′,2′-d]pyridin]-7″-one, trifluoroacetate salt], for which the pIC50 was not below 7.00 in assay [1], not below 7.00 in assay [2], 5.60 to 5.90 in assay [3] and 5.60 to 5.90 in assay [4].
On to `CCS(=O)(=O)N1CC2(C1)CC1(C2)C(=O)N(C)c2cnc3[nH]c(-c4cnn(CCOC)c4)c(-c4ccc5c(cnn5C)c4)c3c21` [Example 88, 1-(Ethylsulfonyl)-2″-(1-(2-methoxyethyl)-1H-pyrazol-4-yl)-6″-methyl-1″-(1-methyl-1H-indazol-5-yl)-3″,6″-dihydro-7″H-dispiro[azetidine-3,1′-cyclobutane-3′,8″-dipyrrolo[2,3-b:3′,2′-d]pyridin]-7″-one, trifluoroacetate salt], for which the pIC50 in assay [1] was not below 7.00; in assay [2], not below 7.00; in assay [3] it was 5.60 to 5.90; in assay [4] it was 5.60 to 5.90.
`O=C(O)C(F)(F)F.[2H]C([2H])([2H])N1C(=O)C2(CC3(CN(S(=O)(=O)CC)C3)C2)c2c1cnc1[nH]c(-c3cnn(C(C)C)c3)c(-c3ccc4c(cnn4C)c3)c21` [Example 89, 1-(Ethylsulfonyl)-2″-(1-isopropyl-1H-pyrazol-4-yl)-6″-(methyl-d3)-1″-(1-methyl-1H-indazol-5-yl)-3″,6″-dihydro-7″H-dispiro[azetidine-3,1′-cyclobutane-3′,8″-dipyrrolo[2,3-b:3′,2′-d]pyridin]-7″-one, trifluoroacetate salt]: the pIC50 in assay [1] is not below 7.00; in assay [2] it was not below 7.00; in assay [3], 5.60 to 5.90; in assay [4], 5.60 to 5.90.
For `CCS(=O)(=O)N1CC2(C1)CC1(C2)C(=O)N(C)c2cnc3[nH]c(-c4cnn(C5CCCC5)c4)c(-c4ccc5c(cnn5C)c4)c3c21` [Example 90, 2″-(1-Cyclopentyl-1H-pyrazol-4-yl)-1-(ethylsulfonyl)-6″-methyl-1″-(1-methyl-1H-indazol-5-yl)-3″,6″-dihydro-7″H-dispiro[azetidine-3,1′-cyclobutane-3′,8″-dipyrrolo[2,3-b:3′,2′-d]pyridin]-7″-one, trifluoroacetate salt], the pIC50 in assay [1] is not below 7.00; in assay [2], not below 7.00; in assay [3], 5.60 to 5.90; in assay [4] it was 5.60 to 5.90.
With `CCS(=O)(=O)N1CC2(C1)CC1(C2)C(=O)N(C)c2cnc3[nH]c(-c4ccc(CN5CCC(C#N)CC5)cc4)c(-c4ccc5c(cnn5C)c4)c3c21` [Example 91, l-(4-(1-(Ethylsulfonyl)-6″-methyl-1″-(1-(methy-d3)-1H-indazol-5-yl)-7″-oxo-6″,7″-dihydro-3″H-dispiro[azetidine-3,1′-cyclobutane-3′,8″-dipyrrolo[2,3-b:3′,2′-d]pyridin]-2″-yl)benzyl)piperidine-4-carbonitrile, trifluoroacetate salt], the pIC50 in assay [1] was not below 7.00; in assay [2], not below 7.00; in assay [3], 5.60 to 5.90; in assay [4] it was 5.60 to 5.90.
